From patent publication US8524755B2 (priority 2009, dated 2013)

How the values were obtained:
[1] = molecular target: T1, norepinephrine transporter (h) (Homo sapiens, UniProt P23975); assay: Binding norepinephrine transporter (h) (aa); settings: read-out: % Inhibition of Control Specific Binding @ 10 μM
T1 construct: expressed in transfected cells; host or cells: CHO cells
Method: (§1) Radioligand binding assay methods utilized to measure the activity of compounds of the invention will be familiar to those skilled in the art. In each assay case, the assay components such as, for example, the cell-type, ligand, reference compound and the like, will be familiar to practitioners of such an assay.
(§2) Analysis and Expression of Results: Compounds of the invention were tested in the biochemical assays and percent inhibition of specific binding was determined. The specific ligand binding to the receptors is defined as the difference between the total binding and the nonspecific binding determined in the presence of an excess of unlabelled ligand. The results are expressed as a percent inhibition of control specific binding (100−((measured specific binding/control specific binding)×100)) obtained in the presence of test compounds.

GABA transporter = assay: Binding GABA transporter (aa); set-up: species or system rat
Method: as §1, §2

[2] = test system: Cl^− channel (GABA-gated); assay: Binding Cl− channel (GABA-gated) (aa); set-up: species or system rat
Method: as §1, §2

PCP = assay: Binding PCP (aa); set-up: species or system rat
Method: as §1, §2

[3] = molecular target: T2, Thyrotropin Releasing Hormone TRH1 (h) (Homo sapiens, UniProt P34981); assay: Binding TRH1 (h) (ag); settings: read-out: % Inhibition of Control Specific Binding @ 10 μM
T2 construct: expressed in transfected cells; host or cells: CHO cells
T2 sequence (P34981 1-398): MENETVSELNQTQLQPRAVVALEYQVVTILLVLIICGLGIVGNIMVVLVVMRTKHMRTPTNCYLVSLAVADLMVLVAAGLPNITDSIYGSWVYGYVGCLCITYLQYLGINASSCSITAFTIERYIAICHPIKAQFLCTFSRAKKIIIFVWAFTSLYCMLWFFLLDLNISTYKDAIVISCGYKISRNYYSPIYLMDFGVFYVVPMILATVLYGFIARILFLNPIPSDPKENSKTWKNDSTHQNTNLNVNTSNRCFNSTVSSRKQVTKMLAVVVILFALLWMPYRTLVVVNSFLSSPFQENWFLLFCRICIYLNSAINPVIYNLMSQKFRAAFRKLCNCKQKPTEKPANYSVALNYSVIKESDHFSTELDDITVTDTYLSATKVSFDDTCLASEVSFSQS
Method: as §1, §2

Adrenergic α1 (ns) = assay: Binding α1 (ns) (aa); set-up: species or system rat
Method: as §1, §2

Dopamine D4.4 (h) = molecular target: T3, Dopamine D4.4 (h) (Homo sapiens, UniProt P21917); assay: Binding D4.4 (h) (aa); settings: read-out: % Inhibition of Control Specific Binding @ 10 μM
T3 construct: expressed in transfected cells; host or cells: CHO cells
T3 sequence (P21917 1-419): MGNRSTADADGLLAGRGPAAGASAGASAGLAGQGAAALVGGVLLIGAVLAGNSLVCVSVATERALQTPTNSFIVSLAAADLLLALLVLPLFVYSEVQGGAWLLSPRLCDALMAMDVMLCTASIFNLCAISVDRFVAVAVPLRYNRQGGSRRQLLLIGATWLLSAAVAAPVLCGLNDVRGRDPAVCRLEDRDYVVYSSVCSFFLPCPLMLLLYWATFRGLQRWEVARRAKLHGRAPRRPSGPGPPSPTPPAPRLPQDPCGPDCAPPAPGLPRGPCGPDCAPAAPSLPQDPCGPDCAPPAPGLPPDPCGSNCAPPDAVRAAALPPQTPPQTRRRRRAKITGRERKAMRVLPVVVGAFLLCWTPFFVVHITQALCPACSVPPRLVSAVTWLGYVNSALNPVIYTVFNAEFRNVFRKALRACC
Method: as §1, §2

Dopamine D3 (h) = molecular target: T4, Dopamine D3 (h) (Homo sapiens, UniProt P35462); assay: Binding D3 (h) (aa); settings: read-out: % Inhibition of Control Specific Binding @ 10 μM
T4 construct: expressed in transfected cells; host or cells: CHO cells
T4 sequence (P35462 whole entry): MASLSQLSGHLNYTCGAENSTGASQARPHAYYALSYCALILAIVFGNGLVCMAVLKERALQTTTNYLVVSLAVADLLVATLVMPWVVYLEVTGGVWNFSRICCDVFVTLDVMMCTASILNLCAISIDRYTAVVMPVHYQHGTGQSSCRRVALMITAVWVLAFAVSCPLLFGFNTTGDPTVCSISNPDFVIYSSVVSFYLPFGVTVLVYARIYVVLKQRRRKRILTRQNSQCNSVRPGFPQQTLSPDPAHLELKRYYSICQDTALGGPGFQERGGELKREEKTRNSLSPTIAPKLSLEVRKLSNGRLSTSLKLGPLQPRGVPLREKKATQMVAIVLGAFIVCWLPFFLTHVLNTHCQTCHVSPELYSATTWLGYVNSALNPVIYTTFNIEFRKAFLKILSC
Method: as §1, §2

[4] = test system: Benzodiazepine BZD (central); assay: Binding BZD (central) (ag); set-up: species or system rat
Method: as §1, §2

T1 sequence (P23975 whole entry): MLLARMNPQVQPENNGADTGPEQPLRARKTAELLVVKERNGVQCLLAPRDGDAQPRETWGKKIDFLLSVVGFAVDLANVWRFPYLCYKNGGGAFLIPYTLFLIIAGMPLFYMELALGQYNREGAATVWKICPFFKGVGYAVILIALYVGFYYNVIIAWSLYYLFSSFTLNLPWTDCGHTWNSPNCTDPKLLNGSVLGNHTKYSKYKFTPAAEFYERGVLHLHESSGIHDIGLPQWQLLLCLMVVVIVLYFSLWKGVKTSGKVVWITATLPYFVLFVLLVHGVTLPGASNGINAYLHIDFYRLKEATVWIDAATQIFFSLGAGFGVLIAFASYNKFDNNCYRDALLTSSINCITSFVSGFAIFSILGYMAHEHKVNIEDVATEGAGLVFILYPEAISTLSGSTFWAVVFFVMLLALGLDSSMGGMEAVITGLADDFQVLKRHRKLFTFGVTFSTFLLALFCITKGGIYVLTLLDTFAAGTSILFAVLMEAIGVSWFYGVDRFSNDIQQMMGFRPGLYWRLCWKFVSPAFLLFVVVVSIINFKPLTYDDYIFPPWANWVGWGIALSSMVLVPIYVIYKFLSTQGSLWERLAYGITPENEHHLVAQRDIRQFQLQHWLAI

| SMILES | inhibition at 10 µM [1] [%] | % Inhibition of Control Specific Binding @ 10 μM (GABA transporter) [%] | % Inhibition of Control Specific Binding @ 10 μM [2] [%] | % Inhibition of Control Specific Binding @ 10 μM (PCP) [%] | inhibition at 10 µM [3] [%] | % Inhibition of Control Specific Binding @ 10 μM (Adrenergic α1 (ns)) [%] | inhibition at 10 µM (Dopamine D4.4 (h)) [%] | inhibition at 10 µM (Dopamine D3 (h)) [%] | % Inhibition of Control Specific Binding @ 10 μM [4] [%] |
| --- | --- | --- | --- | --- | --- | --- | --- | --- | --- |
| CNC(=O)c1ccc(N2C(=O)N(c3ccc(C#N)c(C(F)(F)F)c3)C(=O)C2(C)C)cc1F [(MIV), 4-(3-(4-cyano-3-(trifluoromethyl)phenyl)-5,5-dimethyl-2,4-dioxoimidazolidin-1-yl)-2-fluoro-N-methylbenzamide] | 20 | −24 | 36 | 4 | 0 | −3 | -15 | 7 | −29 |
| CC1(C)C(=O)N(c2ccc(C#N)c(C(F)(F)F)c2)C(=S)N1c1ccc(C(=O)O)c(F)c1 [(MI), 4-(3-(4-cyano-3-(trifluoromethyl)phenyl)-5,5-dimethyl-4-oxo-2-thioxoimidazolidin-1-yl)-2-fluorobenzoic acid] | 56 | −16 | 47 | 0 | 18 | −4 | 1 | 7 | −35 |
| CC1(C)C(=O)N(c2ccc(C#N)c(C(F)(F)F)c2)C(=O)N1c1ccc(C(N)=O)c(F)c1 [(MIII), 4-(3-(4-cyano-3-(trifluoromethyl)phenyl)-5,5-dimethyl-2,4-dioxoimidazolidin-1-yl)-2-fluorobenzamide] | 9 | −35 | 38 | 2 | -5 | −5 | 13 | 0 | −20 |
| CC1(C)C(=O)N(c2ccc(C#N)c(C(F)(F)F)c2)C(=S)N1c1ccc(C(N)=O)c(F)c1 [(MII), 4-(3-(4-Cyano-3-(trifluoromethyl)phenyl)-5,5-dimethyl-4-oxo-2-thioxoimidazolidin-1-yl)-2-fluorobenzamide] | -13 | 7 | 81 | 5 | -4 | −7 | 9 | 11 | −37 |
